Measurements reported in US20230416240A1, “KAT6 TARGETING COMPOUNDS” (Prelude Therapeutics Incorporated, priority 2022, published 2023).

The compounds below were run against T1, HiBit tagged KAT6A (Homo sapiens, UniProt Q92794) (assay: HiBit KAT6A Degradation Assessment). Settings: HeLa cells with HiBit tagged KAT6A, 18 h of treatment, 9-point serial dilution.
T1 construct: host or cells: HeLa
Type: cell-based
Experimental: The degradation activity of compounds was evaluated by measuring levels of KAT6A protein using the HiBiT system. These studies were conducted in HeLa cells with a HiBit tagged KAT6A. Cells were maintained in a 37° C. incubator at 5% CO2 in EMEM (ATCC, 30-2003) supplemented with 10% v/v FBS (Gibco, 26140-079) and 1% penicillin streptomycin. Cells were seeded in 384-well plates at a density of 2,000 cells/well. Compounds dissolved in DMSO were added in 9-point serial dilution. After 18 h of treatment, KAT6A levels were measured using the Nano-Glo® HiBiT Lytic Detection System (Promega catalog number N3030) per manufacturer's instructions. Luminescence signal was measured with a multimode plate reader (Envision 2105, Perkin Elmer). Luminescence values were normalized to background and DMSO controls to quantify KAT6A for each condition. Results were analyzed, and DC50 and Dmax values obtained using a four-parameter logistic curve fit.

T1 sequence (Q92794 whole entry): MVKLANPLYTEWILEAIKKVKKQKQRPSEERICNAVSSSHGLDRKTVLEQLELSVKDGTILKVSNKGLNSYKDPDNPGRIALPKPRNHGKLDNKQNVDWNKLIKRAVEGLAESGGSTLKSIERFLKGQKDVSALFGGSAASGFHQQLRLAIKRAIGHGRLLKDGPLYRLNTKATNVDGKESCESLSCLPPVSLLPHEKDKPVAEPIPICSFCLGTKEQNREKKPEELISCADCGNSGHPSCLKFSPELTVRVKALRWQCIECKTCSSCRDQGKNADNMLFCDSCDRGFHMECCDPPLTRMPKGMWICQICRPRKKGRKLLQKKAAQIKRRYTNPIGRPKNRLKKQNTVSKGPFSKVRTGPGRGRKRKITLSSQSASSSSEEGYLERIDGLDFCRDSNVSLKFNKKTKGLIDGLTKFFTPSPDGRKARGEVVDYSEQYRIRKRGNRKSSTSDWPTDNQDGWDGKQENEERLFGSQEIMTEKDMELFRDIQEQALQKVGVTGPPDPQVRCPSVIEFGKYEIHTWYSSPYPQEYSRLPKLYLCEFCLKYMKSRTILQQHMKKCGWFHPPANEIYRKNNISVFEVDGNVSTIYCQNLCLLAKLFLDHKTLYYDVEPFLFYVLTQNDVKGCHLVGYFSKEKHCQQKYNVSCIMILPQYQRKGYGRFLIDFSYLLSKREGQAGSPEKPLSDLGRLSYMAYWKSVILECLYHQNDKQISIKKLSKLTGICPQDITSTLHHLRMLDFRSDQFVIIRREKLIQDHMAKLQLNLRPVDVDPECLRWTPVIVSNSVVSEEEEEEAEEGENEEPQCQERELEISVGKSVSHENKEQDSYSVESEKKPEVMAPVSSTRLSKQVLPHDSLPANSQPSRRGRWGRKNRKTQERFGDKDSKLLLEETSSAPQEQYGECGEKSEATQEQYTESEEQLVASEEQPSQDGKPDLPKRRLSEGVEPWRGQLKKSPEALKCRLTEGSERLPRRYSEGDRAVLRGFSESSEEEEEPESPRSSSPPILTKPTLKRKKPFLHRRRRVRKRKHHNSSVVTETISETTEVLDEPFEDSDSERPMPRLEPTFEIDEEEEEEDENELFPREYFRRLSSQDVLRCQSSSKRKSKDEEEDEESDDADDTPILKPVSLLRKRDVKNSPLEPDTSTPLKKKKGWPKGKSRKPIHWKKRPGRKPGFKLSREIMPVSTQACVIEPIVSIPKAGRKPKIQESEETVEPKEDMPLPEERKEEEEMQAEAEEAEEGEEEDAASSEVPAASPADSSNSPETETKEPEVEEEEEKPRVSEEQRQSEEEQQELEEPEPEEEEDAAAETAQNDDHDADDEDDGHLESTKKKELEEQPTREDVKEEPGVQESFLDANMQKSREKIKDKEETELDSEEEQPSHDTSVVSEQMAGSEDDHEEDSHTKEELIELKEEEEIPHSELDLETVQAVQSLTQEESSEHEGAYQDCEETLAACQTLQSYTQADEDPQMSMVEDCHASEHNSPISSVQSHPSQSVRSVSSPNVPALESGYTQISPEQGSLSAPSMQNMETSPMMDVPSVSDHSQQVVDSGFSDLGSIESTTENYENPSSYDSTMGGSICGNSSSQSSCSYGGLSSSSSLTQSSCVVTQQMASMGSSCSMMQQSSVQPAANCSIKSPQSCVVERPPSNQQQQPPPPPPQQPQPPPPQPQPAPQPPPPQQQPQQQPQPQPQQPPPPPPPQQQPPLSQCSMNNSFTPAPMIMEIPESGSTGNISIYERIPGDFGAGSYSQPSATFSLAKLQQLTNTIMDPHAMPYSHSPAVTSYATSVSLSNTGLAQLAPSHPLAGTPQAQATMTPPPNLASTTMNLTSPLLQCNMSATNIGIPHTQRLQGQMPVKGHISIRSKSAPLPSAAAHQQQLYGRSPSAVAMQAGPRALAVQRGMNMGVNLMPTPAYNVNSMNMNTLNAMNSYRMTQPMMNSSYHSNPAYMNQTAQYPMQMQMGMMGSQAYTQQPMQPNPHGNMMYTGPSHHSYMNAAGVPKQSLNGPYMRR

Question: For `COc1cc(Cn2cccn2)cc2onc(NS(=O)(=O)c3cccc(N4CCC(CN5CCC(Oc6ccc7c(c6)C(=O)N(C6CCC(=O)NC6=O)C7=O)CC5)C4)c3)c12` (stereo not shown) [Example 23, N-(6-((1H-Pyrazol-1-yl)methyl)-4-methoxybenzo[d]isoxazol-3-yl)-3-(3-((4-((2-(2,6-dioxopiperidin-3-yl)-1,3-dioxoisoindolin-5-yl)oxy)piperidin-1-yl)methyl)pyrrolidin-1-yl)benzenesulfonamide], which Dmax is on record?
Answer: Its Dmax is 25 to 50%.

Question: With `COc1cc(Cn2cccn2)cc2onc(NS(=O)(=O)c3cccc(N4CCN(CC5CC6(CCN(c7ccc8c(c7)C(=O)N(C7CCC(=O)NC7=O)C8=O)CC6)C5)CC4)c3)c12` (stereo not shown) [Example 19, N-(6-((1H-Pyrazol-1-yl)methyl)-4-methoxybenzo[d]isoxazol-3-yl)-3-(4-((7-(2-(2,6-dioxopiperidin-3-yl)-1,3-dioxoisoindolin-5-yl)-7-azaspiro[3.5]nonan-2-yl)methyl)piperazin-1-yl)benzenesulfonamide] as the compound, how does the DC50 read?
Answer: The DC50 was 10 to 100 nM.

Question: What about the Dmax of the same compound?
Answer: The Dmax was 50 to 75%.

Question: What does the source list for `COc1c(N2CC3(CCN(C[C@H]4CCN(c5ccc6c(c5)CN(C5CCC(=O)NC5=O)C6=O)C4)CC3)C2)cccc1S(=O)(=O)Nc1noc2cc(Cn3cccn3)cc(OC)c12` (stereo partly drawn) [Example 27, N-(6-((1H-Pyrazol-1-yl)methyl)-4-methoxybenzo[d]isoxazol-3-yl)-3-(7-(((3R)-1-(2-(2,6-dioxopiperidin-3-yl)-1-oxoisoindolin-5-yl)pyrrolidin-3-yl)methyl)-2,7-diazaspiro[3.5]nonan-2-yl)-2-methoxybenzenesulfonamide]?
Answer: DC50: < 10 nM; Dmax: > 75%

Question: `COc1cc(Cn2cccn2)cc2onc(NS(=O)(=O)c3cccc(N4CCC5(CC4)CN(C[C@@H]4CCN(c6ccc7c(c6)C(=O)N(C6CCC(=O)NC6=O)C7=O)C4)C5)c3)c12` (stereo partly drawn) [Example 14, N-(6-((1H-Pyrazol-1-yl)methyl)-4-methoxybenzo[d]isoxazol-3-yl)-3-(2-(((3S)-1-(2-(2,6-dioxopiperidin-3-yl)-1,3-dioxoisoindolin-5-yl)pyrrolidin-3-yl)methyl)-2,7-diazaspiro[3.5]nonan-7-yl)benzenesulfonamide] was tested. Which DC50 did it give?
Answer: The DC50 was less than 10 nM.

Question: And the Dmax?
Answer: Its Dmax is 50 to 75%.

Question: `COc1cc(Cn2cccn2)cc2onc(NS(=O)(=O)c3cccc(N4CC5(CCN(CC6CCN(c7ccc8c(c7)C(=O)N(C7CCC(=O)NC7=O)C8)C6)CC5)C4)c3)c12` (stereo not shown) [Example 34, N-(6-((1H-pyrazol-1-yl)methyl)-4-methoxybenzo[d]isoxazol-3-yl)-3-(7-((1-(2-(2,6-dioxopiperidin-3-yl)-3-oxoisoindolin-5-yl)pyrrolidin-3-yl)methyl)-2,7-diazaspirononan-2-yl)benzenesulfonamide] was tested. Which DC50 did it give?
Answer: The DC50 was less than 10 nM.

Question: What about the Dmax of the same compound?
Answer: The Dmax was 50 to 75%.

Question: Which DC50 does the source give for `COc1cc(Cn2cccn2)cc2onc(NS(=O)(=O)c3cccc(NC4CCN(C[C@@H]5CCN(c6ccc7c(c6)CN([C@H]6CCC(=O)NC6=O)C7=O)C5)CC4)c3)c12` [Example 38, N-(6-((1H-Pyrazol-1-yl)methyl)-4-methoxybenzo[d]isoxazol-3-yl)-3-((1-(((S)-1-(2-((S)-2,6-dioxopiperidin-3-yl)-1-oxoisoindolin-5-yl)pyrrolidin-3-yl)methyl)piperidin-4-yl)amino)benzenesulfonamide] here?
Answer: The DC50 was 10 to 100 nM.

Question: And the Dmax?
Answer: The Dmax was 50 to 75%.

Question: How did the DC50 turn out when `COc1cc(Cn2cccn2)cc2onc(NS(=O)(=O)c3cccc(N4CCN(CC5CN(c6ccc7c(c6)C(=O)N(C6CCC(=O)NC6=O)C7=O)C5)CC4)c3)c12` (stereo not shown) [Example 42, N-(6-((1H-pyrazol-1-yl)methyl)-4-methoxybenzo[d]isoxazol-3-yl)-3-(4-((1-(2-(2,6-dioxopiperidin-3-yl)-1,3-dioxoisoindolin-5-yl)azetidin-3-yl)methyl)piperazin-1-yl)benzenesulfonamide] was run?
Answer: The DC50 was 10 to 100 nM.

Question: What about the Dmax of the same compound?
Answer: The Dmax was 50 to 75%.
